From ChEMBL document CHEMBL5518180, “Design, synthesis, and biological evaluation of harmine derivatives as topoisomerase I inhibitors for cancer treatment” (Eur J Med Chem, 2024)
Activity calls are given as the source filed them. No cut-off for these calls is given here.

Legend:
[1] = Toxicity in BALB/c mouse transplanted with […] cells assessed as change in serum aspartate aminotransferase level at 5 to 20 mg/kg, ip administered for 14 days by biochemical analysis; format: organism-based; settings: in vivo, 336 h, dose 5-20 mg/kg, time 14 day
4T1 [2] = assay: Antitumor activity against mouse 4T1 cells transplanted in BALB/c mouse assessed as tumor growth inhibition administered for 14 days; format: functional; settings: dose 5-20 mg/kg, route ip, time 14.0 day
HepG2 = assay: Antiproliferative activity against human HepG2 cells assessed as inhibition of cell growth incubated for 48 hrs by MTT assay; format: functional, cell-based; settings: HepG2, 48 h
MCF7 [3] = assay: Inhibition of colony formation in human MCF7 cells at 0.075 uM incubated for 2 weeks by crystal violet staining based analysis; format: functional, cell-based
4T1 [4] = assay: Antitumor activity against mouse 4T1 cells transplanted in BALB/c mouse assessed as tumor growth inhibition rate at 10 mg/kg, ip administered for 14 days relative to control; format: functional; parameters: scale not given: the % may be the effect or the level left; settings: time 14 day
MCF7 [5] = assay: Induction of apoptosis in human MCF7 cells assessed as necrotic cells at 0.5 uM incubated for 24 hrs by Annexin V-FITC/Propidium Iodide staining based flow cytometry analysis (reference value: 0.082 %); format: functional
MCF7 [6] = assay: Induction of apoptosis in human MCF7 cells assessed as late apoptotic cells at 0.1 uM incubated for 24 hrs by Annexin V-FITC/Propidium Iodide staining based flow cytometry analysis (reference value: 5.58 %); format: functional
[7] = Toxicity in BALB/c mouse transplanted with […] cells assessed as kidney damage at 5 to 20 mg/kg, ip administered for 14 days by hematoxylin and eosin staining based analysis; format: organism-based; settings: in vivo, 336 h, dose 5-20 mg/kg, time 14 day
MCF7 [8] = assay: Induction of DNA damage in human MCF7 cells at 5 to 10 uM pre-incubated for 24 hrs by Comet assay; format: functional, cell-based; settings: dose 5-10 µM
MCF7 [9] = assay: Inhibition of colony formation in human MCF7 cells incubated for 2 weeks by crystal violet staining based analysis; format: functional, cell-based; settings: dose 0.075-1.2 µM
A549 = assay: Antiproliferative activity against human A549 cells assessed as inhibition of cell growth incubated for 48 hrs by MTT assay; format: functional, cell-based; settings: A549, 48 h
MCF7 [10] = assay: Induction of apoptosis in human MCF7 cells assessed as late apoptotic cells at 0.5 uM incubated for 24 hrs by Annexin V-FITC/Propidium Iodide staining based flow cytometry analysis (reference value: 5.58 %); format: functional
[11] = Toxicity in BALB/c mouse transplanted with […] cells assessed as change in creatinine level at 5 to 20 mg/kg, ip administered for 14 days by biochemical analysis; format: organism-based; settings: in vivo, 336 h, dose 5-20 mg/kg, time 14 day
MCF7 [12] = assay: Induction of apoptosis in human MCF7 cells assessed as necrotic cells at 0.1 uM incubated for 24 hrs by Annexin V-FITC/Propidium Iodide staining based flow cytometry analysis (reference value: 0.082 %); format: functional
MCF7 [13] = assay: Induction of apoptosis in human MCF7 cells assessed as late apoptotic cells at 2 uM incubated for 24 hrs by Annexin V-FITC/Propidium Iodide staining based flow cytometry analysis (reference value: 5.58 %); format: functional
MCF7 [14] = assay: Induction of apoptosis in human MCF7 cells assessed as increase in Bax protein expression incubated for 24 hrs by Western blotting analysis; format: functional, cell-based; settings: dose 0.1-2 µM
MCF7 [15] = assay: Antiproliferative activity against human MCF7 cells assessed as inhibition of cell growth incubated for 48 hrs by MTT assay; format: functional, cell-based; settings: MCF7, 48 h
MCF7 [16] = assay: Induction of apoptosis in human MCF7 cells assessed as early apoptotic cells at 0.1 uM incubated for 24 hrs by Annexin V-FITC/Propidium Iodide staining based flow cytometry analysis (reference value: 2.54 %); format: functional
MCF7 [17] = assay: Induction of apoptosis in human MCF7 cells assessed as viable cells at 2 uM incubated for 24 hrs by Annexin V-FITC/Propidium Iodide staining based flow cytometry analysis (reference value: 91.8 %); format: functional; settings: read-out: Activity
MCF7 [18] = assay: Antimigratory activity against human MCF7 cells assessed as reduction in penetration of cells in transwell membrane at 0.125 to 0.5 uM incubated for 24 hrs by crystal violet staining based inverted fluorescence microscopic analysis; format: functional, cell-based; settings: dose 0.125-0.5 µM
MCF7 [19] = assay: Induction of DNA damage in human MCF7 cells at 1 uM pre-incubated for 24 hrs by Comet assay; format: functional, cell-based
4T1 [20] = assay: Antitumor activity against mouse 4T1 cells transplanted in BALB/c mouse assessed as inhibition of tumor volume at 10 mg/kg, ip administered for 14 days; format: functional, organism-based; settings: time 14.0 day
[21] = Toxicity in BALB/c mouse transplanted with […] cells assessed as heart damage at 5 to 20 mg/kg, ip administered for 14 days by hematoxylin and eosin staining based analysis; format: organism-based; settings: in vivo, 336 h, dose 5-20 mg/kg, time 14 day
MCF7 [22] = assay: Antimigratory activity against human MCF7 cells assessed as wound healing rate at 0.5 uM incubated for 24 hrs by inverted fluorescence microscopic analysis (reference value: 42.5 %); format: functional
MCF7 [23] = assay: Induction of apoptosis in human MCF7 cells assessed as increase in phosphorylated Bim protein expression incubated for 24 hrs by Western blotting analysis; format: functional, cell-based; settings: dose 0.1-2 µM
MCF7 [24] = assay: Antimigratory activity against human MCF7 cells assessed as decrease in MMP-2 expression incubated for 24 hrs by Western blotting analysis; format: functional, cell-based; settings: dose 125-500 nM
4T1 [25] = assay: Antitumor activity against mouse 4T1 cells transplanted in BALB/c mouse assessed as tumor growth inhibition rate at 20 mg/kg, ip administered for 14 days relative to control; format: functional; settings: 4T1, 336 h, time 14 day, read-out: TGI
[26] = Toxicity in BALB/c mouse transplanted with […] cells assessed as change in creatine kinase level at 5 to 20 mg/kg, ip administered for 14 days by biochemical analysis; format: organism-based; settings: in vivo, 336 h, dose 5-20 mg/kg, time 14 day
[27] = Toxicity in BALB/c mouse transplanted with […] cells assessed as change in lactate dehydrogenase level at 5 to 20 mg/kg, ip administered for 14 days by biochemical analysis; format: organism-based; settings: in vivo, 336 h, dose 5-20 mg/kg, time 14 day
MCF7 [28] = assay: Induction of DNA double-strand breaks in human MCF7 cells assessed as increase in gamma-H2AX incubated for 48 hrs by DAPI staining based confocal laser scanning microscopy; format: functional, cell-based; settings: dose 0.25-1 µM
MCF7 [29] = assay: Induction of apoptosis in human MCF7 cells assessed as early apoptotic cells at 2 uM incubated for 24 hrs by Annexin V-FITC/Propidium Iodide staining based flow cytometry analysis (reference value: 2.54 %); format: functional
MDA-MB-231 = assay: Antiproliferative activity against human MDA-MB-231 cells assessed as inhibition of cell growth incubated for 48 hrs by MTT assay; format: functional, cell-based; settings: MDA-MB-231, 48 h

For `O=C(/C=C/c1ccc(Cl)c([N+](=O)[O-])c1)c1nccc2c1[nH]c1ccccc12`, the Activity [1] was “Non-Toxic”, the TGI (4T1 [2]) was “Dose-Dependent Effect” and the IC50 (HepG2) was 1610 nM. For the same molecule, the inhibition (MCF7 [3]) was “Active”, the Activity (4T1 [4]) was 43.19% and the Activity (MCF7 [5]) was 0.27%. For the same molecule, the Activity (MCF7 [6]) was 7.06%, the Activity [7] was “Non-Toxic” and the Activity (MCF7 [8]) was “Active”. The inhibition (MCF7 [9]) was “Dose-Dependent Effect”, the IC50 (A549) was 2020 nM and the Activity (MCF7 [10]) was 8.65%. The Activity [11] was “Non-Toxic”, the Activity (MCF7 [12]) was 0.12% and the Activity (MCF7 [13]) was 30.8%. For the same molecule, the Activity (MCF7 [14]) was “Dose-Dependent Effect”, the IC50 (MCF7 [15]) was 340 nM and the Activity (MCF7 [16]) was 7.52%. The viability at 2 µM (MCF7 [17]) was 60.6%, the Activity (MCF7 [18]) was “Active” and the Activity (MCF7 [19]) was “inactive”. The Activity (4T1 [20]) was “Active”, the Activity [21] was “Non-Toxic” and the Activity (MCF7 [22]) was 1.4%. The Activity (MCF7 [23]) was “Dose-Dependent Effect”, the Activity (MCF7 [24]) was “Dose-Dependent Effect” and the inhibition in vivo at 20 mg/kg (4T1 [25]) was 63.9%. For the same molecule, the Activity [26] was “Non-Toxic”, the Activity [27] was “Non-Toxic” and the Activity (MCF7 [28]) was “Dose-Dependent Effect”. The Activity (MCF7 [29]) was 7.59% and the IC50 (MDA-MB-231) was 980 nM.
